Results on 29 compounds are retold here after ChEMBL document CHEMBL1143543, “Potent 1,3,4-trisubstituted pyrrolidine CCR5 receptor antagonists: effects of fused heterocycles on antiviral activity and pharmacokinetic properties” (Bioorg Med Chem Lett, 2005).

SMILES strings stand for the structures.

The subject of data set [1] is Human immunodeficiency virus 1. Put plainly: Antiinfective activity in HeLa cells against HIV-1(BAL) in the presence of 50% of human serum. Type of data set: functional. As to conditions: Human immunodeficiency virus 1, HeLa.
For data set [2], the target named is Voltage-gated L-type calcium channel (Homo sapiens, UniProt Q13936+Q13698+Q01668+O60840). Kind of data set: Inhibitory concentration against L-type [Ca2+] channel. Type of data set: protein assay.
Data set [3] in a line: Plasma clearance in rat. Type of data set: ADME, organism-based. The settings on record: read-out: Clp.
The subject of data set [4] is Human immunodeficiency virus 1. Put plainly: Antiinfective activity in HeLa cells against HIV-1(BAL) in the absence of 50% of human serum. The settings on record: Human immunodeficiency virus 1, HeLa. Type of data set: functional.
Data set [5] is described as follows: Bioavailability in rat. It is filed as ADME, organism-based. As to conditions: in vivo.
Data set [6] in a line: Half life in rat. Type of data set: ADME. As to conditions: in vivo.
Data set [7] addresses C-C chemokine receptor type 5 (Homo sapiens, UniProt P51681). Kind of data set: Displacement of [125I]-MIP-1 alpha from human C-C chemokine receptor type 5 expressed on CHO cell membranes.
Data set [8] is described as follows: Oral bioavailability in rat. It is filed as ADME, organism-based. The settings on record: in vivo.
The target of data set [9] is Voltage-gated inwardly rectifying potassium channel KCNH2 (Homo sapiens, UniProt Q12809). Kind of data set: Inhibitory activity against human Potassium channel HERG.
Data set [10] can be described thus: Inhibitory concentration against PBM cells. It is filed as functional. The settings on record: PBMC.

What is called IC90 is the concentration needed for an effect of 90%. The term IC50 denotes the midpoint of a concentration-inhibition curve. What is called bioavailability is the share of a dose that reaches the circulation, judged against a reference dose that is usually intravenous. For orientation: half-life means how long it takes for the measured level to halve. What is called IC95 is the concentration needed for an effect of 95%. The low end stands for an effect from little substance, the high end for a need for much substance.

Sequence of C-C chemokine receptor type 5 (P51681 whole entry): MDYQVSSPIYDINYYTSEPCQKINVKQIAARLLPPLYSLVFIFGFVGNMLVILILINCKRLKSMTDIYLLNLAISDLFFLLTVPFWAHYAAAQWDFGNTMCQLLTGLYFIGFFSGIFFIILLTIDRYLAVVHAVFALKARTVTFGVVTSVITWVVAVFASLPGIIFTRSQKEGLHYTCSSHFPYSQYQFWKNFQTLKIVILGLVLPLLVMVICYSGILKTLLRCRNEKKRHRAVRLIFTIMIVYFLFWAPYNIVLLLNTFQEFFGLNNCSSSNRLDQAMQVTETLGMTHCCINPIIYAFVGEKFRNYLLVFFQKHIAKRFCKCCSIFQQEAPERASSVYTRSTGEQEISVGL
Sequence of Voltage-gated inwardly rectifying potassium channel KCNH2 (Q12809 whole entry): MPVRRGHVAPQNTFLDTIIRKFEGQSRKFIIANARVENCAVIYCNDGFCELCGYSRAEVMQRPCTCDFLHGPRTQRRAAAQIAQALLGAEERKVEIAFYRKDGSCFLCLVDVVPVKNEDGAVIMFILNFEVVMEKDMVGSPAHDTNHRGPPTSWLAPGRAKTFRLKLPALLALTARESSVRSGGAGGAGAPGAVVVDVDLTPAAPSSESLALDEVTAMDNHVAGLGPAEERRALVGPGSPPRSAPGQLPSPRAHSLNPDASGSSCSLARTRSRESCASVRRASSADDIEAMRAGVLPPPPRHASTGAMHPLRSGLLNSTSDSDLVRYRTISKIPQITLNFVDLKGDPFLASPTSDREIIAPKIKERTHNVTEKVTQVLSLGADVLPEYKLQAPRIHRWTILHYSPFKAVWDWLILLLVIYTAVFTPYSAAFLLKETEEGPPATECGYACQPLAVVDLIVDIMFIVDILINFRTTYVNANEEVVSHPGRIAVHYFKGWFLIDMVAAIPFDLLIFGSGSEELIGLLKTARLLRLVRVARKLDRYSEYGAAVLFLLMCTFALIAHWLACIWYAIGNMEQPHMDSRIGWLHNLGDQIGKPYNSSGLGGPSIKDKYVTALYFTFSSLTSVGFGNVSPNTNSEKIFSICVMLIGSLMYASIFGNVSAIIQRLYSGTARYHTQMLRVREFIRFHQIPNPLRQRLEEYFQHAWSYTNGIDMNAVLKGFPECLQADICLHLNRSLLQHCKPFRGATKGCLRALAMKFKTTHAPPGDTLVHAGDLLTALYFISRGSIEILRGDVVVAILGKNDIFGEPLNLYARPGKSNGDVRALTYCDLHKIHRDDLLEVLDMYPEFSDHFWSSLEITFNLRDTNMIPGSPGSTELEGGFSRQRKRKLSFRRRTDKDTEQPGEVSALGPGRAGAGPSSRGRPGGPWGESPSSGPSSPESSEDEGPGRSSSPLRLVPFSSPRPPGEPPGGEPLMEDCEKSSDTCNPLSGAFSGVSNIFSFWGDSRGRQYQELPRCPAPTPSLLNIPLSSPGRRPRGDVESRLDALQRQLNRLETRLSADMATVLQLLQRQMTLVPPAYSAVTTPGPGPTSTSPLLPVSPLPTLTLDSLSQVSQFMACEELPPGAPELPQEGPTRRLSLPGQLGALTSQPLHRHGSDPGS

Turning to `O=C(O)[C@@H](CC1CCC1)N1C[C@H](CN2CCC(c3cnc4ccc(Cl)cn34)CC2)[C@@H](c2cccc(F)c2)C1`, the IC90 is 100 nM in data set [1] and 1.2 nM in [4]. Also, the results for the IC50 in data set [2] and in [7] were > 10000 nM and 0.89 nM, respectively. In addition, in [3], the clearance was 16 mL/min/kg. Moreover, in data set [5], the bioavailability was found to be 26%. Besides, the half-life in [6] was 42 min.

`O=C(O)[C@@H](C1CCCCC1)N1C[C@H](CN2CCC(c3c[nH]c4ccccc34)CC2)[C@@H](c2ccccc2)C1` displayed an IC50 in data set [7] of 10 nM.

Take `O=C(O)[C@@H](CC1CCC1)N1C[C@H](CN2CCC(c3cnc4ccc(F)cn34)CC2)[C@@H](c2cccc(F)c2)C1`: the IC90 in data set [1] is 300 nM; in [4], 3.7 nM. In data set [3], the clearance amounted to 19 mL/min/kg. For the same compound, the bioavailability in data set [5] was determined as 38%. The same compound showed a half-life in data set [6] of 48 min. The compound further gave an IC50 in data set [7] of 0.3 nM.

Take `O=C(O)[C@@H](CC1CCC1)N1C[C@H](CN2CCC(c3cnc4cnccn34)CC2)[C@@H](c2cccc(F)c2)C1`: the IC90 in data set [1] came out at 100 nM; in [4] it was 11 nM. This compound also returned an IC50 in data set [7] of 1 nM.

As for `O=C(O)[C@@H](CC1CCC1)N1C[C@H](CN2CCC(c3nnc4ccccn34)CC2)[C@@H](c2ccccc2)C1`, the IC90 in data set [1] is > 300 nM; in [4] it was 100 nM. Also, the IC50 in [7] worked out at 12 nM.

Take `Cc1cc(C)n2ncc(C3CCN(C[C@H]4CN([C@H](CC5CCC5)C(=O)O)C[C@@H]4c4cccc(F)c4)CC3)c2n1`: the IC90 in data set [1] and in data set [4] was > 300 nM throughout. Besides, the IC50 in [7] amounted to 7 nM.

The compound `O=C(O)[C@@H](C1CCCCC1)N1C[C@H](CN2CCC(n3c(=O)[nH]c4ccccc43)CC2)[C@@H](c2ccccc2)C1` came in with an IC50 in [7] of 63 nM.

On to `O=C(O)[C@@H](C1CCCCC1)N1C[C@H](CN2CCC(n3cnc4ccccc43)CC2)[C@@H](c2ccccc2)C1`, for which the IC90 in data set [1] came out at 100 nM; in data set [4], 11 nM. Besides, in data set [8], the bioavailability is < 2%. In addition, the IC50 in [7] is 2.5 nM.

As for `O=C(O)[C@@H](CC1CCC1)N1C[C@H](CN2CCC(c3ncc4ccccn34)CC2)[C@@H](c2cccc(F)c2)C1`, the IC90 in data set [1] and in data set [4] was > 300 nM each time. Besides, the IC50 in data set [7] turned out to be 13 nM.

Take `O=C(O)[C@@H](CC1CCC1)N1C[C@H](CN2CCC(c3cnc4ccccn34)CC2)[C@@H](c2cccc(F)c2)C1`: the IC90 in [1] came out at 33 nM; in [4], 1.2 nM. The IC50 in [2] was > 10000 nM; in [7], 0.42 nM. The clearance in [3] worked out at 38 mL/min/kg. In data set [5], this compound showed a bioavailability of 4%. In addition, the half-life in data set [6] is 126 min.

For the compound `O=C(O)[C@@H](C1CCCCC1)N1C[C@H](CN2CCC(CCCn3cnc4ccccc43)CC2)[C@@H](c2ccccc2)C1`, the IC90 is 33 nM in [1] and 1.2 nM in [4]. Also, the bioavailability in data set [8] was < 2%. The same compound came in with an IC50 in data set [7] of 0.84 nM.

As to `O=C(O)[C@@H](CC1CCC1)N1C[C@H](CN2CCC(c3cnc4ccc(C(F)(F)F)cn34)CC2)[C@@H](c2cccc(F)c2)C1`, the values for the IC90 in [1] and in data set [4] were 300 nM and 11 nM, respectively. Also, the IC50 in data set [2] was > 10000 nM; in data set [9], < 10000 nM; in [7], 0.82 nM. Further, in [3], the clearance was determined as 18 mL/min/kg. Also, in [5], the bioavailability was 26%. In data set [6], this compound had a half-life of 48 min.

In turn, `O=C(O)[C@@H](CC1CCC1)N1C[C@H](CN2CCC(c3cn4ccccc4n3)CC2)[C@@H](c2cccc(F)c2)C1` gave an IC50 in [7] of 65 nM.

`O=C(O)[C@@H](C1CCCCC1)N1C[C@H](CN2CCC(Cn3cnc4ccccc43)CC2)[C@@H](c2ccccc2)C1`: the IC90 was > 300 nM in data set [1] and 100 nM in data set [4]. Further, the IC50 in data set [7] was determined as 6.3 nM.

In the case of `O=C(O)[C@@H](C1CCCCC1)N1C[C@H](CN2CCC(n3cnc4ncccc43)CC2)[C@@H](c2ccccc2)C1`, in [7], the IC50 was 23 nM.

Take `O=C(O)[C@@H](CC1CCC1)N1C[C@H](CN2CCC(c3cnc4ccc(-c5ccccc5)cn34)CC2)[C@@H](c2cccc(F)c2)C1`: the IC90 in data set [1] turned out to be 300 nM; in data set [4] it was 11 nM. Moreover, the clearance in data set [3] stood at 83 mL/min/kg. Moreover, the bioavailability in [5] amounted to 19%. Besides, the half-life in [6] is 96 min. In addition, the IC50 in data set [7] was determined as 0.8 nM.

Compound `O=C(O)[C@@H](CC1CCC1)N1C[C@H](CN2CCC(c3cn4cccnc4n3)CC2)[C@@H](c2ccccc2)C1` gave an IC50 in data set [7] of 200 nM.

For `O=C(O)[C@@H](C1CCCCC1)N1C[C@H](CN2CCC(n3cnc(=O)c4ccccc43)CC2)[C@@H](c2ccccc2)C1`, the IC50 in [7] turned out to be 100 nM.

Take `O=C(O)[C@@H](C1CCCCC1)N1C[C@H](CN2CCC(n3nnc4ccccc43)CC2)[C@@H](c2ccccc2)C1`: in data set [4], the IC90 was 100 nM. The same compound displayed an IC50 in data set [7] of 8.2 nM.

In turn, `O=C(O)[C@@H](C1CCCCC1)N1C[C@H](CN2CCC(n3cnc4cccnc43)CC2)[C@@H](c2ccccc2)C1` had an IC90 in data set [4] of 33 nM. The same compound had an IC50 in data set [7] of 2.8 nM.

With `O=C(O)[C@@H](CC1CCC1)N1C[C@H](CN2CCC(c3cnc4c(Cl)cc(Cl)cn34)CC2)[C@@H](c2cccc(F)c2)C1`, the IC90 was 300 nM in data set [1] and 33 nM in [4]. Besides, the clearance in data set [3] was 20 mL/min/kg. This compound also registered a bioavailability in data set [5] of 39%. The half-life in data set [6] is 24 min. In data set [7], this compound returned an IC50 of 0.5 nM.

For the compound `O=C(O)[C@@H](C1CCCCC1)N1C[C@H](CN2CCC(CCn3cnc4ccccc43)CC2)[C@@H](c2ccccc2)C1`, the IC90 in data set [1] was > 300 nM; in data set [4], 100 nM. In [7], the IC50 was 2.6 nM.

On to `CCc1ccn2c(C3CCN(C[C@H]4CN([C@H](CC5CCC5)C(=O)O)C[C@@H]4c4cccc(F)c4)CC3)cnc2c1`, for which the IC90 in data set [1] is 11 nM; in [4], 0.13 nM. Further, the clearance in [3] stood at 67 mL/min/kg. The compound also showed a bioavailability in data set [5] of 11%. In [6], this compound had a half-life of 150 min. In data set [7], the IC50 amounted to 0.35 nM.

In data set [7], `O=C(O)[C@@H](C1CCCCC1)N1C[C@H](CN2CCC(n3cnc4ccccc4c3=O)CC2)[C@@H](c2ccccc2)C1` displayed an IC50 of 12 nM.

Turning to `O=C(O)[C@@H](CC1CCC1)N1C[C@H](CN2CCC(c3cn4ccncc4n3)CC2)[C@@H](c2cccc(F)c2)C1`, the IC90 in data set [1] and in data set [4] was 300 nM throughout. This compound also came in with an IC50 in [7] of 29 nM.

Consider `O=C(O)[C@@H](CC1CCC1)N1C[C@H](CN2CCC(CCCc3ccccc3)CC2)[C@@H](c2ccccc2)C1`, for which, in data set [10], the IC95 is < 8 nM.

For the compound `O=C(O)[C@@H](CC1CCC1)N1C[C@H](CN2CCC(c3cnc4ccc([N+](=O)[O-])cn34)CC2)[C@@H](c2cccc(F)c2)C1`, the IC90 amounted to 300 nM in [1] and 100 nM in [4]. Also, in data set [3], the clearance was found to be 120 mL/min/kg. The compound further yielded a bioavailability in data set [5] of 61%. For the same compound, in data set [6], the half-life was 12 min. In addition, in data set [7], the IC50 came to 0.6 nM.

As for `O=C(O)[C@@H](CC1CCC1)N1C[C@H](CN2CCC(c3cnc4cccnn34)CC2)[C@@H](c2cccc(F)c2)C1`, the IC90 in data set [1] came out at 300 nM; in data set [4] it was 11 nM. The compound further registered an IC50 in data set [7] of 3 nM.

`O=C(O)[C@@H](CC1CCC1)N1C[C@H](CN2CCC(c3cnc4ncccn34)CC2)[C@@H](c2cccc(F)c2)C1`: the values for the IC90 in data set [1] and in data set [4] were 100 nM and 33 nM, respectively. For the same compound, the IC50 in [7] was determined as 3.5 nM.
